Laboratory results reported in patent publication US7820714B2, “Siglec inhibitors” (priority 2001, dated 2010).
Read-outs that look alike come from different tables or passages of the source.

What was measured:
Siglec-4a (MAG) = biological target: T1, Siglec-4a (MAG) (UniProt P20917); assay: Hapten inhibition assay, Siglec-4a (MAG); conditions: for Siglec-4a (MAG) rIP: quotient IC50 reference compound / IC50 compound; for IC50: read-out: Siglec-4a (MAG) IC50; for Siglec-4a (MAG) percentage in parentheses below the IC50 bound: at the concentration of the IC50 bound, meaning not defined in the patent
T1 sequence (P20917 1-627): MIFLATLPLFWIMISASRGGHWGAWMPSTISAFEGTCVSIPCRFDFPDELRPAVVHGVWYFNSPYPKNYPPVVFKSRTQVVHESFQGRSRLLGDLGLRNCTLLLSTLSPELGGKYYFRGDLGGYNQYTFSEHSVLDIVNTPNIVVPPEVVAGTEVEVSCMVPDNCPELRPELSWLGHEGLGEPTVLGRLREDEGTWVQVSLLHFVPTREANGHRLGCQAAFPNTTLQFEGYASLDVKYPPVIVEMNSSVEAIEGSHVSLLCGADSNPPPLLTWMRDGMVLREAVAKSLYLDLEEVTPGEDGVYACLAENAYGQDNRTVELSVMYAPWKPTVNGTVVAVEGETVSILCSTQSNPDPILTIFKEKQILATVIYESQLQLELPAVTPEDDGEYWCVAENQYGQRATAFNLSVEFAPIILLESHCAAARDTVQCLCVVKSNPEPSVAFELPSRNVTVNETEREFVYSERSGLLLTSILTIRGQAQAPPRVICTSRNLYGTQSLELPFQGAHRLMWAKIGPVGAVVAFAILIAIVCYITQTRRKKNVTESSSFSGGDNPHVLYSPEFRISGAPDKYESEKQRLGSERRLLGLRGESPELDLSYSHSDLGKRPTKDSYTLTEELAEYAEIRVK
Protocol: Preferably, the inhibition can be determined by a Hapten inhibition test. […] After overnight incubation at 4° C. the unbound complexes are removed by washing the cells and the bound radioactivity is determined. […] Then followed the addition of 10 μl of a suspension of target cells, preferably 0.25 to 0.5% of human erythrocytes and incubation overnight at 4° C. The unbound radioactivity is removed by washing the cells five times with 200 μl of washing buffer, preferably phosphate-buffered saline with 0.1% (W/V) bovine serum albumin, and the cell-bound activity is determined with a γ-counter. […] The inhibition is determined in that the value without inhibitor is set to 0% and that with the sialidase-treated cells is set equal to 100%.

Siglec-1 (sialoadhesin) = Siglec-1 (sialoadhesin) (Mus musculus, UniProt Q62230); assay: Hapten inhibition assay, Siglec-1 (sialoadhesin); assay type: binding; conditions: for Siglec-1 (sialoadhesin) rIP: quotient IC50 reference compound / IC50 compound; for Siglec-1 (sialoadhesin) percentage in parentheses below the IC50 bound: at the concentration of the IC50 bound, meaning not defined in the patent
Protocol: (§1) Preferably, the inhibition can be determined by a Hapten inhibition test. […] After overnight incubation at 4° C. the unbound complexes are removed by washing the cells and the bound radioactivity is determined. From the data obtained in this way, the concentrations are found which lead to 50% inhibition of the binding (IC50 values) (5, 6). Specially preferred during the Hapten inhibition test was 10 μl of the complex solution with an activity of 10^3 Bq ^125I mixed with the same volume of a solution of the substance to be investigated (concentrated three times) and incubated at 4° C. for one hour. Then followed the addition of 10 μl of a suspension of target cells, preferably 0.25 to 0.5% of human erythrocytes and incubation overnight at 4° C. The unbound radioactivity is removed by washing the cells five times with 200 μl of washing buffer, preferably phosphate-buffered saline with 0.1% (W/V) bovine serum albumin, and the cell-bound activity is determined with a γ-counter. […] The inhibition is determined in that the value without inhibitor is set to 0% and that with the sialidase-treated cells is set equal to 100%.
(§2) The IC50 value is the siglec inhibitor concentration which leads to 50% inhibition in the binding in the Hapten inhibition assay.

Siglec-2 (murine CD22) = biological target: T2, Siglec-2 (murine CD22) (Mus musculus, UniProt P35329); assay: Hapten inhibition assay, Siglec-2 (murine CD22); assay type: binding; conditions: for Siglec-2 (murine CD22) rIP: quotient IC50 reference compound / IC50 compound; for IC50: unit inferred
T2 sequence (P35329 22-148 limits assumed): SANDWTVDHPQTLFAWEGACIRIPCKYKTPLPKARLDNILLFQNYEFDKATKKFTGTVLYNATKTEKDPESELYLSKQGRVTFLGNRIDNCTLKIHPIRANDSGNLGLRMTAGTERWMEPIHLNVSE
Protocol: as §1, §2

Siglec-2 (human CD22) = biological target: T3, Siglec-2 (human CD22) (Homo sapiens, UniProt P20273); assay: Hapten inhibition assay, Siglec-2 (human CD22); assay type: binding; conditions: for Siglec-2 (human CD22) rIP: quotient IC50 reference compound / IC50 compound; for IC50: unit inferred
T3 sequence (P20273 20-138 limits assumed): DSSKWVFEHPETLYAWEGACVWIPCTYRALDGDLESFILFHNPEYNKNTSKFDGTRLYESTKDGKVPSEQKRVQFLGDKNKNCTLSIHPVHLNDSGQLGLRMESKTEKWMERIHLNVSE
Protocol: as §1, §2

Chain of Siglec-1 (sialoadhesin) (Q62230 20-136 limits assumed): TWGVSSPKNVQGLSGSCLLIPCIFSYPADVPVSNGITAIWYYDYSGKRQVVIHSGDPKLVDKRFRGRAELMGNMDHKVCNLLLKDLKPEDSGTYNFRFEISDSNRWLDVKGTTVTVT

Siglec-4a (MAG) rIP (Siglec-4a (MAG)) | IC50 (Siglec-4a (MAG); unit inferred) [mM] | Siglec-1 (sialoadhesin) rIP (Siglec-1 (sialoadhesin)) | IC50 (Siglec-1 (sialoadhesin); unit inferred) [mM] | Siglec-4a (MAG) percentage in parentheses below the IC50 bound (Siglec-4a (MAG)) | IC50 (Siglec-4a (MAG); bounds given in mM) [mM] | Siglec-1 (sialoadhesin) percentage in parentheses below the IC50 bound (Siglec-1 (sialoadhesin)) | IC50 (Siglec-1 (sialoadhesin); bounds given in mM) [mM] | Siglec-2 (murine CD22) rIP (Siglec-2 (murine CD22)) | IC50 (Siglec-2 (murine CD22)) [µM] | Siglec-2 (human CD22) rIP (Siglec-2 (human CD22)) | IC50 (Siglec-2 (human CD22)) [µM] | Compound
7.3 | 1.6 | 2.4 | 0.385 |  |  |  |  |  |  |  |  | CC(=O)N[C@H]1[C@H]([C@H](O)[C@H](O)CO)O[C@@](O[C@H]2[C@@H](O)[C@@H](CO)O[C@@H](O[C@H]3[C@H](O)[C@@H](O)C(O)O[C@@H]3CO)[C@@H]2O)(C(=O)O)C[C@@H]1O (stereo partly shown) [2,3-sialyllactose, reference compound]
>0.27 |  | <0.05 |  | (27%) | < 10 | (63%) | > 10 |  |  |  |  | O=C(NC1C(O)CC(OCc2ccccc2)(C(=O)O)OC1C(O)C(O)CO)c1ccccc1 (stereo not drawn) [Benzyl-α-5-N-benzoyl-neuraminic acid]
1.5 | 5.3 | 2.7 | 0.25 |  |  |  |  |  |  |  |  | CCCC(=O)N[C@H]1[C@H]([C@H](O)[C@H](O)CO)O[C@@](OCc2ccccc2)(C(=O)O)C[C@@H]1O [Benzyl-α-5-N-butanoyl-neuraminic acid]
4.8 | 2.5 | 3.4 | 0.215 |  |  |  |  |  |  |  |  | CCC(=O)NC1C(O)CC(OCc2ccccc2)(C(=O)O)OC1C(O)C(O)CO (stereo not drawn) [Benzyl-α-5-N-propanoyl-neuraminic acid]
3.0 | 2 | 4.1 | 0.28 |  |  |  |  |  |  |  |  | CC(=O)N[C@H]1[C@H]([C@H](O)[C@H](O)CO)O[C@@](SCc2ccccc2)(C(=O)O)C[C@@H]1O [Benzylthio-α-Neu5Ac]
 |  |  |  |  |  |  |  | 8.3 | 703 | 1.0 | 1010 | CO[C@]1(C(=O)O)C[C@H](O)[C@@H](NC(=O)CO)[C@H]([C@H](O)[C@H](O)CO)O1 [Methyl-α-5-N-glycolyl-neuraminic acid]
2.3 | 2.5 | <<0.1 |  |  |  | (80%) | > 10 |  |  |  |  | CO[C@]1(C(=O)O)C[C@H](O)[C@@H](NC(C)=O)[C@H]([C@H](O)[C@H](O)CNC(=O)C(CNC(C)=O)NC(C)=O)O1 (stereo partly drawn) [Methyl-α-9-N-(2,3-diacetylaminopropanoyl)-amino-9-desoxy-Neu5Ac]
 |  | 0.3 | 2.6 |  |  |  |  | 9.5 | 647 | 10 | 97 | CO[C@]1(C(=O)O)C[C@H](O)[C@@H](NC(C)=O)[C@H]([C@H](O)[C@H](O)CNC(=O)c2ccccc2-c2ccccc2)O1 [Methyl-α-9-N-(biphenyl-2-carbonyl)-amino-9-desoxy-Neu5Ac]
 |  | 0.3 | 3 |  |  |  |  | 48 | 123 | 29 | 35 | CO[C@]1(C(=O)O)C[C@H](O)[C@@H](NC(C)=O)[C@H]([C@H](O)[C@H](O)CNC(=O)Cc2ccc(-c3ccccc3)cc2)O1 [Methyl-α-9-N-(biphenyl-4-acetyl)-amino-9-desoxy-Neu5Ac]
32 | 0.24 | 0.2 | 1.33 |  |  |  |  |  |  |  |  | CCOc1c(NC[C@@H](O)[C@@H](O)[C@@H]2O[C@@](OC)(C(=O)O)C[C@H](O)[C@H]2NC(C)=O)c(=O)c1=O [Methyl-α-9-N-(ethoxycyclobutendion)-amino-9-desoxy-Neu5Ac]
0.9 | 5 | <<0.1 |  |  |  | (100%) | > 10 |  |  |  |  | COC1(C(=O)O)CC(O)C(NC(C)=O)C(C(O)C(O)CNC(=O)CNC(=O)CN)O1 (stereo not drawn) [Methyl-α-9-N-(gly)2-amino-9-desoxy-Neu5Ac]
<<0.27 |  | >>0.05 |  | (88%) | > 10 | (11%) | < 10 |  |  |  |  | COC1(C(=O)O)CC(O)C(NC(C)=O)C(C(O)C(O)CNC(=O)CNC(=O)CNC(=O)CN)O1 (stereo not drawn) [Methyl-α-9-N-(gly)3-amino-9-desoxy-Neu5Ac]
7 | 0.367 |  |  |  |  |  |  |  |  |  |  | COC1(C(=O)O)CC(O)C(NC(C)=O)C(C(O)C(O)CNC(=O)Cc2ccccc2)O1 (stereo not drawn) [Methyl-α-9-N-(phenylacetyl)-amino-9-desoxy-Neu5Ac]
6.2 | 1.01 | <0.05 |  |  |  | (62%) | > 10 |  |  |  |  | COC1(C(=O)O)CC(O)C(NC(C)=O)C(C(O)C(O)CNC(=O)CC(C)=O)O1 (stereo not drawn) [Methyl-α-9-N-acetoacetyl-amino-9-desoxy-Neu5Ac]
3.3 | 3.4 | 0.3 | 7.48 |  |  |  |  |  |  |  |  | CO[C@]1(C(=O)O)C[C@H](O)[C@@H](NC(C)=O)[C@H]([C@H](O)[C@H](O)CNC(=O)CN)O1 [Methyl-α-9-N-aminoacetyl-9-desoxy-Neu5Ac]
19 | 0.317 | 2.6 | 0.26 |  |  |  |  |  |  |  |  | COC1(C(=O)O)CC(O)C(NC(C)=O)C(C(O)C(O)CNS(=O)(=O)c2cccc3c(N(C)C)cccc23)O1 (stereo not drawn) [Methyl-α-9-N-dansyl-amino-9-desoxy-Neu5Ac]
54 | 0.198 | 0.7 | 1.46 |  |  |  |  |  |  |  |  | CCCCCC(=O)NCC(O)C(O)C1OC(OC)(C(=O)O)CC(O)C1NC(C)=O (stereo not drawn) [Methyl-α-9-N-hexanoyl-amino-9-desoxy-Neu5Ac]
 |  | <0.2 | > 4 |  |  | (57%) |  |  |  |  |  | COC1(C(=O)O)CC(O)C(NC(C)=O)C(C(O)C(O)CNC(=O)C(N)=O)O1 (stereo not drawn) [Methyl-α-9-N-oxamido-amino-9-desoxy-Neu5Ac]
6.5 | 0.733 | 0.3 | 6 |  |  |  |  |  |  |  |  | CO[C@]1(C(=O)O)C[C@H](O)[C@@H](NC(C)=O)[C@H]([C@H](O)[C@H](O)CNC(C)=S)O1 [Methyl-α-9-N-thioacetyl-amino-9-desoxy-Neu5Ac]
10 | 0.55 | 0.5 | 4 |  |  |  |  |  |  |  |  | COC1(C(=O)O)CC(O)C(NC(C)=O)C(C(O)C(O)CNC(=O)C(F)(F)F)O1 (stereo not drawn) [Methyl-α-9-N-trifluoracetyl-amino-9-desoxy-Neu5Ac]
<<2.4 | > 1 | <0.2 | > 4 | (87%) |  | (63%) |  |  |  |  |  | COC1(C(=O)O)CC(O)C(NC(C)=O)C(C(O)C(O)C(=O)O)O1 (stereo not drawn) [Methyl-α-9-carboxy-Neu5Ac]
0.1 | 3.4 | <<0.05 | 2 |  |  |  |  |  |  |  |  | CO[C@]1(C(=O)O)C[C@H](O)[C@@H](NC(C)=O)[C@H]([C@H](O)[C@H](O)CS(C)(=O)=O)O1 [Methyl-α-9-methylsulphonyl-9-desoxy-Neu5Ac]
8.5 | 0.697 | <0.05 | 2 |  |  |  |  |  |  |  |  | CO[C@]1(C(=O)O)C[C@H](O)[C@@H](NC(C)=O)[C@H]([C@H](O)[C@H](O)C[S+](C)[O-])O1 (stereo partly drawn) [Methyl-α-9-methylsulphoxido-9-desoxy-Neu5Ac]
<<0.27 |  | <<0.05 |  | (116%) | > 10 |  |  |  |  |  |  | COC1(C(=O)O)CC(O)C(NC(C)=O)C(C(O)C(O)CSC)O1 (stereo not drawn) [Methyl-α-9-methylthio-9-desoxy-Neu5Ac]
 |  |  |  |  |  |  |  | 7.4 | 620 | 5.7 | 180 | Methyl-α-9-N-(cyclobutendion)-amino-9-desoxy-Neu5Ac
 |  | 0.4 | 2.5 | (90%) | > 10 |  |  |  |  |  |  | Methyl-α-methyl-α-5-N-fluoracetylaminoacetyl-neuraminic acid

Compound | Siglec-4a (MAG) rIP (Siglec-4a (MAG)) | IC50 (Siglec-4a (MAG); unit inferred) [mM] | Siglec-1 (sialoadhesin) rIP (Siglec-1 (sialoadhesin)) | IC50 (Siglec-1 (sialoadhesin); unit inferred) [mM] | Siglec-4a (MAG) percentage in parentheses below the IC50 bound (Siglec-4a (MAG)) | IC50 (Siglec-4a (MAG); bounds given in mM) [mM] | Siglec-1 (sialoadhesin) percentage in parentheses below the IC50 bound (Siglec-1 (sialoadhesin)) | IC50 (Siglec-1 (sialoadhesin); bounds given in mM) [mM] | Siglec-2 (murine CD22) rIP (Siglec-2 (murine CD22)) | IC50 (Siglec-2 (murine CD22)) [µM] | Siglec-2 (human CD22) rIP (Siglec-2 (human CD22)) | IC50 (Siglec-2 (human CD22)) [µM]
COC(=O)C1(OC)CC(O)C(NC(=O)CF)C(C(O)C(O)CO)O1 (stereo not drawn) [Methyl-α-methyl-α-5-N-fluoracetyl-neuraminic acid] | 17.1 | 0.28 | 1.9 | 0.625 |  |  |  |  |  |  |  | 
